Assay results from publication PMC8413292, “Small-molecule polymerase inhibitor protects non-human primates from measles and reduces shedding” (Nature Communications, 2021).
Several values for one entry are separate records, joined by “and”; a condition that tells them apart may be missing. Equal values may be shown once.

System: MV/FrankfurtMain.DEU/17.11 (genotype D8)
Test: Rectal temperature of MeV-infected squirrel monkeys
Format: in vivo, squirrel monkeys (Saimiri sciureus)
Settings: for Temperature: individual animals
Experimental: All animal experiments were carried out in compliance with the regulations of German animal protection laws and authorized by the Regierungspräsidium Darmstadt, Germany (Dezernat V54 – Veterinärwesen und Verbraucherschutz, Hilpertstrasse 31, 64295 Darmstadt). Adult male and female squirrel monkeys (Saimiri sciureus) were obtained from BioPRIM, 31450 Baziege, or CNRS 0846 Primatologie, 13790 Rousset, France. Each experimental group was housed in a separate room, and animals of the same sex were caged together within the respective groups. For the single-dose pharmacokinetic experiment, animals were anesthetized, and the drug was given through a stomach tube at a concentration of 50 mg/kg bodyweight. Blood samples were collected after 15, 30, and 60 min, and 2, 3, 6, and 24 h. For efficacy assessment, groups of 6 animals were left untreated or treated with 50 mg/kg of ERDRP-0519 twice daily for two weeks, starting either 12 h before or 3 or 7 days after intranasal infection with 10^6 TCID50 of MV/FrankfurtMain.DEU/17.11. Clinical signs, rectal temperature, and weight were recorded daily, and throat swabs and blood samples were collected before infection and twice weekly thereafter. On day 21 post-infection, the animals were euthanized, necropsied, and samples were collected for histological analysis.

`Cn1nc(C(F)(F)F)cc1C(=O)Nc1ccc(S(=O)(=O)N2CCCC[C@H]2CCN2CCOCC2)cc1` [ERDRP-0519] was tested, and the “Temperature, Mean Diff, untreated vs. prophylactic” value (Row 1 (day 0)) was -1.35, the “Temperature, Mean Diff, untreated vs. therapeutic (d3)” value (Row 1 (day 0)) was -0.9667 and the “Temperature, Mean Diff, untreated vs. therapeutic (d7)” value (Row 1 (day 0)) was -0.7167. For the same compound, the “Temperature, Mean Diff, untreated vs. prophylactic” value (Row 2 (day 3)) was 0.5833, the “Temperature, Mean Diff, untreated vs. therapeutic (d3)” value (Row 2 (day 3)) was -0.05 and the “Temperature, Mean Diff, untreated vs. therapeutic (d7)” value (Row 2 (day 3)) was -0.03333. For the same compound, the “Temperature, Mean Diff, untreated vs. prophylactic” value (Row 3 (day 7)) was 1.2, the “Temperature, Mean Diff, untreated vs. therapeutic (d3)” value (Row 3 (day 7)) was 0.5167 and the “Temperature, Mean Diff, untreated vs. therapeutic (d7)” value (Row 3 (day 7)) was 0.4333. The “Temperature, Mean Diff, untreated vs. prophylactic” value (Row 4 (day 10)) was 0.5333, the “Temperature, Mean Diff, untreated vs. therapeutic (d3)” value (Row 4 (day 10)) was 0.3667 and the “Temperature, Mean Diff, untreated vs. therapeutic (d7)” value (Row 4 (day 10)) was 0.5. For the same compound, the “Temperature, Mean Diff, untreated vs. prophylactic” value (Row 5 (day 14)) was -0.25, the “Temperature, Mean Diff, untreated vs. therapeutic (d3)” value (Row 5 (day 14)) was 0.4 and the “Temperature, Mean Diff, untreated vs. therapeutic (d7)” value (Row 5 (day 14)) was 0.3. The “Temperature, Mean Diff, untreated vs. prophylactic” value (Row 6 (day 17)) was 0.1667, the “Temperature, Mean Diff, untreated vs. therapeutic (d3)” value (Row 6 (day 17)) was 0.24 and the “Temperature, Mean Diff, untreated vs. therapeutic (d7)” value (Row 6 (day 17)) was 0.2333. The “Temperature, Mean Diff, untreated vs. prophylactic” value (Row 7 (day 21)) was -0.3167, the “Temperature, Mean Diff, untreated vs. therapeutic (d3)” value (Row 7 (day 21)) was -0.1 and the “Temperature, Mean Diff, untreated vs. therapeutic (d7)” value (Row 7 (day 21)) was -0.1167. The Temperature (prophylactic group, day 0) was 38.9 °C and 38.6 °C and 38.7 °C (2×) and 39.3 °C and 38.2 °C, the Temperature (prophylactic group, day 3) was 38.6 °C and 38.5 °C and 39.1 °C and 39 °C and 37.5 °C and 38.8 °C and the Temperature (prophylactic group, day 7) was 39.3 °C (2×) and 38.5 °C and 38.7 °C and 38.8 °C and 37.3 °C. For the same compound, the Temperature (prophylactic group, day 10) was 39.8 °C and 39.3 °C (2×) and 38.9 °C and 38.3 °C and 39.7 °C, the Temperature (prophylactic group, day 14) was 40.1 °C and 40.5 °C (2×) and 39.6 °C (2×) and 39.1 °C and the Temperature (prophylactic group, day 17) was 39.7 °C (2×) and 39.8 °C and 39.3 °C and 38.7 °C and 40 °C. For the same compound, the Temperature (prophylactic group, day 21) was 39.5 °C (2×) and 39.7 °C (2×) and 39.1 °C and 39.6 °C, the “Temperature, group mean (Mean 2)” value (prophylactic, Row 1 (day 0)) was 38.73 and the “Temperature, group mean (Mean 2)” value (prophylactic, Row 2 (day 3)) was 38.58. For the same compound, the “Temperature, group mean (Mean 2)” value (prophylactic, Row 3 (day 7)) was 38.65, the “Temperature, group mean (Mean 2)” value (prophylactic, Row 4 (day 10)) was 39.22 and the “Temperature, group mean (Mean 2)” value (prophylactic, Row 5 (day 14)) was 39.9. For the same compound, the “Temperature, group mean (Mean 2)” value (prophylactic, Row 6 (day 17)) was 39.53, the “Temperature, group mean (Mean 2)” value (prophylactic, Row 7 (day 21)) was 39.52 and the “mean temperatures in the distinct groups” value (remained within the pre-infection range, all groups) was “less than 40 °C”. For the same compound, the Temperature (therapeutic (d3) group, day 0) was 37.9 °C and 38.1 °C and 37.8 °C and 39.1 °C and 38.4 °C and 38.8 °C, the Temperature (therapeutic (d3) group, day 3) was 39.3 °C and 38.3 °C and 39.2 °C and 40 °C and 39.4 °C and 39.1 °C and the Temperature (therapeutic (d3) group, day 7) was 38.9 °C and 38.7 °C and 39.4 °C (2×) and 39.8 °C (2×). The Temperature (therapeutic (d3) group, day 10) was 38.4 °C and 39 °C and 39.3 °C and 39.6 °C and 39.7 °C and 40.3 °C, the Temperature (therapeutic (d3) group, day 14) was 39.1 °C (2×) and 38.7 °C and 39.5 °C (2×) and 39.6 °C and the Temperature (therapeutic (d3) group, day 17) was 39.1 °C and 39.5 °C (2×) and 39.8 °C and 39.4 °C. For the same compound, the Temperature (therapeutic (d3) group, day 21) was 39.1 °C and 38.8 °C (2×) and 39.8 °C and 40 °C, the “Temperature, group mean (Mean 2)” value (therapeutic (d3), Row 1 (day 0)) was 38.35 and the “Temperature, group mean (Mean 2)” value (therapeutic (d3), Row 2 (day 3)) was 39.22. For the same compound, the “Temperature, group mean (Mean 2)” value (therapeutic (d3), Row 3 (day 7)) was 39.33, the “Temperature, group mean (Mean 2)” value (therapeutic (d3), Row 4 (day 10)) was 39.38 and the “Temperature, group mean (Mean 2)” value (therapeutic (d3), Row 5 (day 14)) was 39.25. The “Temperature, group mean (Mean 2)” value (therapeutic (d3), Row 6 (day 17), N = 5) was 39.46, the “Temperature, group mean (Mean 2)” value (therapeutic (d3), Row 7 (day 21), N = 5) was 39.3 and the Temperature (therapeutic (d7) group, day 0) was 38.4 °C and 38.3 °C and 38 °C and 37.9 °C (2×) and 38.1 °C. The Temperature (therapeutic (d7) group, day 3) was 39.3 °C (2×) and 39.4 °C (2×) and 38.6 °C and 39.2 °C, the Temperature (therapeutic (d7) group, day 7) was 40 °C (2×) and 39.2 °C (2×) and 38.7 °C and 39.4 °C and the “Temperature, group mean (Mean 2)” value (therapeutic (d7), Row 1 (day 0)) was 38.1. The “Temperature, group mean (Mean 2)” value (therapeutic (d7), Row 2 (day 3)) was 39.2, the “Temperature, group mean (Mean 2)” value (therapeutic (d7), Row 3 (day 7)) was 39.42 and the “Temperature, group mean (Mean 2)” value (therapeutic (d7), Row 4 (day 10)) was 39.25. The “Temperature, group mean (Mean 2)” value (therapeutic (d7), Row 5 (day 14)) was 39.35 and the “Temperature, group mean (Mean 2)” value (therapeutic (d7), Row 6 (day 17)) was 39.47.
